From PMC4266903, “Hydroxylation index of omeprazole in relation to CYP2C19 polymorphism and sex in a healthy Iranian population” (DARU Journal of Pharmaceutical Sciences, 2014)
Where two headings read alike, the source gives them in different places. One block for each compound: values may come before it.

Key:
[1] = Plasma concentration of omeprazole and hydroxyomeprazole by HPLC 3 hours after a single oral 20 mg omeprazole dose; assay type: in vivo, human; conditions: for Mean OH-OMP concentration ± SD / concentration at 3 h: plasma, 3 h after single oral 20 mg omeprazole; for concentration at 3 h: human, po, 20 mg, read-out: Mean OMP concentration ± SD
Source text: (§1) The study protocol was approved by ethics committee of Tehran University of Medical Sciences (ethical no. 11208). Generally one hundred and eighty (60 women and 120 men) unrelated healthy Iranian volunteers with the mean age of between 20–55 years and average body weight of 45–89 kg took part in this study. All participants signed written informed consent of this project. The study was completed by contribution of faculties of pharmacy of Tehran, Yazd, Kermanshah and Kerman University of Medical Sciences. The participants were students or stuffs of pharmacy schools, with no history of any illness or medicine consumption. No smoking and consumption of medicine that would affect CYP2C19 activity was permitted for one week before and during the study.
(§2) After an overnight fast for at least 8 hours, volunteers took 20 mg omeprazole capsule (Abidi pharmaceuticals) with 250 milliliter tap water. Ten ml venous blood sample was collected from each subject 3 hours after administration of omeprazole and transferred into tubes containing 10 μl of 10% EDTA. Five ml of blood samples were centrifuged for 5 min at 4000 rpm and the plasma was separated and transferred to Eppendorf tube and stored at −80°C up to the day of analysis. The other 5 ml blood samples were stored directly in −80°C for genotyping analysis.
(§3) Omeprazole powder was purchased from TMAD (Iran). 5-hydroxyomeprazole was a kind donation by AstraZeneca (Sweden). The concentration of omeprazole and 5-hydroxyomeprazole was analyzed by HPLC method as described by Rezk et al. with a few modifications. Briefly 500 μl plasma was extracted by liquid-liquid extraction using 1500 μl ethyl acetate. After orbital mixing for 10 min and centrifuging at 4000 × g for 10 min, the upper organic layer was separated and transferred to glass tube and then evaporated to dryness under gentle stream of air. Finally the residue was dissolved in 250 μl mobile phase and 100 μl of this sample was injected to HPLC system. The mobile phase was a combination of dibasic sodium phosphate buffer (0.025 mol/lit, pH 6): acetonitrile: methanol (73: 18: 8 V/V/V). The HPLC apparatus consisted of a low pressure HPLC pump, UV detector (λ = 302 nm) all from Knauer (Berlin, Germany). The chromatographic separation was performed by using Chromolit™ Performance RP-18e 100 mm × 4.6 mm, 5 μm particle size. Flow rate was adjusted to 1 ml/min.

[2] = design: method as in PMID 20804307; conditions: Iranian patients with erosive reflux esophagitis, cited from earlier work
CYP2C19 [3] = biological target: T1, CYP2C19 (Homo sapiens, UniProt P33261); experiment: Omeprazole hydroxylation index (omeprazole/hydroxyomeprazole in plasma) as measure of CYP2C19 activity; assay type: in vivo; design: key to Median hydroxylation index / Median hydroxylation index (HI) / Mean HI ± SD: ratio: plasma omeprazole / 5-hydroxyomeprazole concentration at 3 h
T1 construct: volunteers took 20 mg omeprazole capsule (Abidi pharmaceuticals) with 250 milliliter tap water; from tissue; host or cells: in vivo, endogenous enzyme of healthy human volunteers; metabolites measured in plasma
T1 sequence (P33261 whole entry): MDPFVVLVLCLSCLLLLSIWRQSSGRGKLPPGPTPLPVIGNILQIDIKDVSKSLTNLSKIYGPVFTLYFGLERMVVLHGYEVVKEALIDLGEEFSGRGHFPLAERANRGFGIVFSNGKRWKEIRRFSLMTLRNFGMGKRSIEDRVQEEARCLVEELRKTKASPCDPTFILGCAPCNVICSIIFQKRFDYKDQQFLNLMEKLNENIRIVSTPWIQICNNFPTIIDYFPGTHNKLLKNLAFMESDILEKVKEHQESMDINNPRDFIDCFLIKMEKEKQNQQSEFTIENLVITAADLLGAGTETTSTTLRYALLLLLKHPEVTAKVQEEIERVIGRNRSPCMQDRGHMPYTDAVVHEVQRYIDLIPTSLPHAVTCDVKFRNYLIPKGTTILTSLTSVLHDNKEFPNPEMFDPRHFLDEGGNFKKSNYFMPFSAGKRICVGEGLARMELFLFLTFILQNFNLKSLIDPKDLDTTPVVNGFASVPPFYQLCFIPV
Source text: as §1, §2, §3
(§4) The allele frequencies differences between population were estimated using two-tailed Fisher’s exact test. The 95% confidence intervals (CI) were calculated using Confidence Interval Analysis software. The relation of sex and genotype was assessed by two tailed Fisher’s exact test. The observed and expected frequencies were calculated by using Hardy-Weinberg equation. The two-tailed Fisher’s exact test was used to evaluate deviation of genotype frequencies in the studied population from Hardy-Weinberg equilibrium. The enzyme activity was compared by using omeprazole hydroxylation index. The hydroxylation index (HI) of omeprazole 3 hours after administration of omeprazole was calculated by dividing omeprazole to 5-hydroxyomeprazol plasma concentration. The mean HI in different genotypes were compared by Mann–Whitney two tailed test. The impact of sex on HI of omeprazole was also evaluated using Mann–Whitney two tailed test. The inter-individual variability in metabolism of omeprazole was represented by probit plot. For drawing probit plot, the log of HI was calculated, the antimode value was determined using Microsoft office excel 2010. The normality of HI distribution was analyzed by frequency distribution histogram and also by Kolmogorov- Smirnov test. All statistical analyses were performed by Sigma Plot version 12.0 and Graph Pad Prism version 5 softwares and P < 0.05 was considered as statistically significant difference.

CYP2C19 [4] = experiment: as above; assay type: in vivo, human; design: key to Median hydroxylation index / Median hydroxylation index (HI) / Mean HI ± SD: ratio: plasma omeprazole / 5-hydroxyomeprazole concentration at 3 h; conditions: for Mean HI ± SD: 3 h after single oral 20 mg omeprazole; for Median hydroxylation index: all genotypes
Source text: as §1, §2, §3, §4

CYP2C19 [5] = conditions: cited from earlier work

Hydroxyomeprazole plasma concentration, women compared with men ([1]; 60 women vs 120 men, P > 0.05): not statistically different | Mean OH-OMP concentration ± SD ([1]; genotype 1*1, Men (53)): 151.01 ± 26.38 ng/mL | Mean OH-OMP concentration ± SD ([1]; genotype 1*1, Total (75)): 163.74 ± 32.25 ng/mL | Mean OH-OMP concentration ± SD ([1]; genotype 1*1, Women (22)): 194.40 ± 60.84 ng/mL | Mean OH-OMP concentration ± SD ([1]; genotype 1*2, Men (20)): 165.53 ± 23.55 ng/mL | Mean OH-OMP concentration ± SD ([1]; genotype 1*2, Total (33)): 177.79 ± 38.39 ng/mL | Mean OH-OMP concentration ± SD ([1]; genotype 1*2, Women (13)): 194.66 ± 52.56 ng/mL | Mean OH-OMP concentration ± SD ([1]; genotype 1*17, Men (37)): 178.07 ± 44.57 ng/mL | Mean OH-OMP concentration ± SD ([1]; genotype 1*17, Total (52)): 177.05 ± 37.53 ng/mL | Mean OH-OMP concentration ± SD ([1]; genotype 1*17, Women (15)): 174.51 ± 28.01 ng/mL | Mean OH-OMP concentration ± SD ([1]; genotype 2*2, Men (1)): 103.58 ng/mL | Mean OH-OMP concentration ± SD ([1]; genotype 2*2, Total (4)): 104.67 ± 10.55 ng/mL | Mean OH-OMP concentration ± SD ([1]; genotype 2*2, Women (3)): 105.03 ± 13.80 ng/mL | Mean OH-OMP concentration ± SD ([1]; genotype 2*17, Men (2)): 169.82 ± 84.95 ng/mL | Mean OH-OMP concentration ± SD ([1]; genotype 2*17, Total (6)): 172.79 ± 63.58 ng/mL | Mean OH-OMP concentration ± SD ([1]; genotype 2*17, Women (4)): 178.72 ± 33.59 ng/mL | Mean OH-OMP concentration ± SD ([1]; genotype 17*17, Men (5)): 201.69 ± 32.08 ng/mL | Mean OH-OMP concentration ± SD ([1]; genotype 17*17, Total (10)): 203.31 ± 34.93 ng/mL | Mean OH-OMP concentration ± SD ([1]; genotype 17*17, Women (5)): 204.92 ± 41.35 ng/mL
Structure (SMILES): COc1ccc2nc([S+]([O-])Cc3ncc(CO)c(OC)c3C)[nH]c2c1 (stereo not shown) [hydroxyomeprazole, 5-hydroxyomeprazole]

Median hydroxylation index (HI) (CYP2C19 [3]; CYP2C19 *1*1, 3 h after 20 mg omeprazole orally): 0.78 | Median hydroxylation index (HI) (CYP2C19 [3]; CYP2C19 *1*17, 3 h after 20 mg omeprazole orally): 0.71 | Omeprazole HI, women compared with men (CYP2C19 [4]; 60 women vs 120 men, P > 0.05): not statistically different | Median HI, fold higher in CYP2C19*1 homozygous than in CYP2C19*17 homozygous subjects (CYP2C19 [4]; *1*1 vs *17*17, P < 0.001): 2.17 fold | Median HI, fold higher in CYP2C19*1*17 than in CYP2C19*17*17 subjects (CYP2C19 [4]; *1*17 vs *17*17, P < 0.001): 1.97 fold | Mean HI ± SD (CYP2C19 [4]; genotype 1*1, Men (53)): 0.89 ± 0.30 | Mean HI ± SD (CYP2C19 [4]; genotype 1*1, Women (22)): 0.78 ± 0.27 | Mean HI ± SD (CYP2C19 [4]; genotype 1*2, Men (20)): 2.29 ± 1.19 | Mean HI ± SD (CYP2C19 [4]; genotype 1*2, Women (13)): 2.24 ± 0.79 | Mean HI ± SD (CYP2C19 [4]; genotype 1*17, Men (37)): 0.77 ± 0.32 | Mean HI ± SD (CYP2C19 [4]; genotype 1*17, Women (15)): 0.72 ± 0.18 | Mean HI ± SD (CYP2C19 [4]; genotype 2*2, Men (1)): 14.25 | Mean HI ± SD (CYP2C19 [4]; genotype 2*2, Women (3)): 13.37 ± 3.80 | Mean HI ± SD (CYP2C19 [4]; genotype 2*17, Men (2)): 2.05 ± 0.67 | Mean HI ± SD (CYP2C19 [4]; genotype 2*17, Women (4)): 1.97 ± 0.62 | Mean HI ± SD (CYP2C19 [4]; genotype 17*17, Men (5)): 0.36 ± 0.04 | Mean HI ± SD (CYP2C19 [4]; genotype 17*17, Women (5)): 0.34 ± 0.08 | Median hydroxylation index (CYP2C19 [4]; men (120)): 0.86 | Median hydroxylation index (CYP2C19 [4]; women (60)): 0.84 | Omeprazole plasma concentration, women compared with men ([1]; 60 women vs 120 men, P > 0.05): not statistically different | Mean omeprazole plasma concentration, fold higher in CYP2C19*2*2 than CYP2C19*1*1 ([1]; *2*2 vs *1*1, P < 0.001): 11 fold | Mean omeprazole plasma concentration, fold higher in CYP2C19*2*2 than CYP2C19*17*17 ([1]; *2*2 vs *17*17, P < 0.001): 19.0 fold | concentration at 3 h ([1]; both sexes, genotype 1*1, Total (75)): 125 ± 27.2 ng/mL | concentration at 3 h ([1]; both sexes, genotype 1*2, Total (33)): 319 ± 150 ng/mL | concentration at 3 h ([1]; both sexes, genotype 1*17, Total (52)): 118 ± 10.2 ng/mL | concentration at 3 h ([1]; both sexes, genotype 2*2, Total (4)): 1390 ± 123 ng/mL | concentration at 3 h ([1]; both sexes, genotype 2*17, Total (6)): 289 ± 97.5 ng/mL | concentration at 3 h ([1]; both sexes, genotype 17*17, Total (10)): 71 ± 10.3 ng/mL | concentration at 3 h ([1]; female, genotype 1*1, Women (22)): 128 ± 39.9 ng/mL | concentration at 3 h ([1]; female, genotype 1*2, Women (13)): 365 ± 265 ng/mL | concentration at 3 h ([1]; female, genotype 1*17, Women (15)): 120 ± 20.1 ng/mL | concentration at 3 h ([1]; female, genotype 2*2, Women (3)): 1360 ± 133 ng/mL | concentration at 3 h ([1]; female, genotype 2*17, Women (4)): 324 ± 39.9 ng/mL | concentration at 3 h ([1]; female, genotype 17*17, Women (5)): 68.3 ± 5.73 ng/mL | concentration at 3 h ([1]; male, genotype 1*1, Men (53)): 123 ± 20.8 ng/mL | concentration at 3 h ([1]; male, genotype 1*2, Men (20)): 290 ± 168 ng/mL | concentration at 3 h ([1]; male, genotype 1*17, Men (37)): 117 ± 16.1 ng/mL | concentration at 3 h ([1]; male, genotype 2*2, Men (1)): 1480 ng/mL | concentration at 3 h ([1]; male, genotype 2*17, Men (2)): 271 ± 119 ng/mL | concentration at 3 h ([1]; male, genotype 17*17, Men (5)): 73.7 ± 13.7 ng/mL
Structure (SMILES): COc1ccc2[nH]c([S+]([O-])Cc3ncc(C)c(OC)c3C)nc2c1 (stereo not shown) [omeprazole]
Successful treatment response ([2]; EM genotype): 43% | Successful treatment response ([2]; HetEM genotype): 95% | Antimode for HI of omeprazole (CYP2C19 [5]; Colombians): 0.63 | Antimode for HI of omeprazole (CYP2C19 [5]; Indian): 14.4 | Antimode for HI of omeprazole (CYP2C19 [5]; Koreans): 7.0 | Mean HI, fold higher in CYP2C19*1*1 than CYP2C19*1*17 (CYP2C19 [5]; Ramsjö et al.): 1.1 fold | Mean HI, fold higher in CYP2C19*1*1 than CYP2C19*17*17 (CYP2C19 [5]; Ramsjö et al.): 3.2 fold | Median HI, fold higher in homozygous CYP2C19*1 than CYP2C19*1*17 carriers (CYP2C19 [5]; Sim et al.): 1.2 fold | Median HI, fold higher in homozygous CYP2C19*1 than homozygous CYP2C19*17 carriers (CYP2C19 [5]; Sim et al.): 2 fold | Antimode for HI of omeprazole (CYP2C19 [5]; Thai population): 7.0 | Antimode for HI of omeprazole (CYP2C19 [5]; West Mexicans): 3.98
